Data on 3 molecules can be found in patent US9072729B2, “Method for treating fibrosis and cancer with imidazolium and imidazolinium compounds” (Agency for Science, Technology and Research, priority 2008, dated 2015).

One data set has as its system primary HSCs. Nature of the data set: Protection of primary HSCs from DMSO cytotoxicity. In kind it is cell-based, Wistar rat. Particulars: DBZIM 100 μM, TDBZIM 50 μM. On the procedure:
FIG. 5. DBZIM and TDBZIM protected primary HSC cells against oxidative stress induced by 0.2% (v/v) of DMSO. (a) Optical images of cells treated with IMSs for 26 and 93 h. Scale bar=60 μm. 0.2% (v/v) of DMSO induced oxidative stress by depleting the total GSH level (b), inducing the GSSG level (c), reducing the GSH/GSSG ratio (d), and inducing GPX (e), CAT (f) and SOD (g) activity levels. The data were presented as mean and SEM, N=6, *^cP<0.005, and *^dP<0.0005; when compared to the untreated sample.
The isolation of primary HSCs from Wistar rat liver was performed primarily following the method provided in a previous report (Weiskirchen et al. 2005). Briefly, the supernatant of cell suspension after hepatocyte removal was washed and re-suspended in 9.5 ml of Gey's balance salt solution (GBSS), and mixed with 8 ml of 28.7% (w/v) Histodenz in GBSS. The gradient was prepared by laying the cell suspension underneath 6 ml of GBSS, and centrifuged in Histodenz gradient at 1400×g for 20 min. The stellate cells were separated into a fuzzy band just above the interface of the Histodenz solution and the aqueous buffer. The stellate cell band was harvested, washed, and 1×10^6 cells/well were seeded in a 6-well culture plate in Dulbecco modified Eagle's medium (DMEM) supplemented with 10% fetal bovine serum (FBS). The viability of the HSCs was >95% as determined by trypan blue exclusion staining, and the purity of the HSCs was >90% as assessed by glial fibrillary acidic protein (GFAP) positive staining in >200 cells counted. Primary HSCs were routinely cultured in DMEM with 10% FBS in a humidified CO2 incubator at 37° C., and split at 1:4 ratio by trypsinization (0.05% trypsin/0.53 mM ethylenediaminetetraacetic acid (EDTA)) when they grew to confluency. The HSC-T6 cell line was kindly provided by Dr. Scott Friedman of Mount Sinai School of Medicine, New York. A stable T6/GFAP-LacZ clonal cell line was established as previously reported (Maubach et al. 2006). HSC-T6 and T6/GFAP-LacZ cells were cultured in the same conditions as the primary HSCs.

The test system of data set [1] is liver fibrosis induced by bile duct ligation (BDL). Nature of the data set: Liver fibrosis in mice induced by bile duct ligation (BDL). In kind it is in vivo, mouse. The conditions noted are these: for liver fibrosis (Sirius Red collagen): drinking water, 4 weeks, DBZIM 10 mg/L, DPIM 1 g/L. How it is done: FIG. 15 Effect of DBZIM and DPIM on liver fibrosis in mice. DBZIM was tested on mice induced by (a) liver toxin thioacetamide (TAA) or by (b) bile duct ligation (BDL). DPIM was also tested on mice induced by TAA (data not shown)) or by (c) bile duct ligation (BDL).
FIG. 16. Representative of images of Sirius red staining in liver sections from different DPIM compound treated group mice. Each treated group had 6-8 mice, except for 500 mg/l treated group, which had only one mouse in the group. Red staining areas represent collagen deposits. (A) sham operated, (B) sham operated+DPIM 1 g/l for 4 weeks, (C) BDL for 4 weeks, (D) BDL 4 weeks+500 mg/l DPIM treatment, (E) BDL 4 weeks+750 mg/l DPIM treatment, and (F) BDL 4 weeks+1 g/l DPIM treatment.
FIG. 17. Percentage of Sirius red staining areas. Sirius red staining areas from different treatment group mice were quantified with Image J software, at least 6 different areas from left and middle lobes of liver of each mouse were covered. *P<0.05, BDL vs. DPIM treated groups; # P<0.05, 750 mg/l vs. 1 g/l treated groups.
FIG. 18. Liver weights of different treatment groups. Each group consisted of 6-8 mice which were 10-12 weeks old at the start of surgery procedure. *P<0.05, sham operated control group vs: BDL 4 weeks, **P<0.05, DPIM compound treated groups vs; BDL weeks group, # P<0.05, 750 mg/l DPIM treated group vs. 1 g/l DPIM treated group.
FIG. 19. Representative images of H&E staining of liver sections. (A) control group; (B) BDL 4 weeks group; and (C) BDL 4 weeks+DPIM 1 g/l treatment group.
FIG. 20. Quantitative real-time PCR for collagen 1a1 mRNA. DPIM reduced collagen 1a1 mRNA.
For the liver toxin thioacetamide (TAA) model, TAA was given by i.p. injection at 200 mg/kg body weight, 3 times per week, for 12 weeks, to induce hepatic fibrosis in mice. For the bile duct ligation model (BDL), adult mice were anesthetized with Ketamine (150 mg/kg)/Xylazine (10 mg/kg) via i.p. injection. An abdominal incision at the midline is made to expose the common bile conduct, which was then ligated using 5-0 silk suture. In the control animal, the bile duct is exposed, but not ligated. DBZIM or DPIM was provided to the mice in drinking water at concentrations from 1 to 1000 mg/liter. The collagen content in the fibrotic liver was assessed by the Sirius Red staining of the liver tissue sections.
Male FVB/N mice (8-10 weeks old) housed in a specific pathogen-free (SFP) facility on a 12 hour dark-light cycle and with free access to water and diet were used in the study. The animal experiment protocol was approved by the institutional animal care and use committee (IACUC), the Biomedical Research Council (BMRC) of Singapore.
Cholestatic fibrosis was induced by BDL, briefly, mice were anesthetized with intraperitoneal injection of ketamine (150 mg/kg) and xylazine (10 mg/kg), after midline laparotomy, the common bile duct was ligated twice with 5-0 silk suture. The sham operation was performed similarly except that bile duct was not double ligated. The experimental mice were divided into four groups: 1) control only (sham operated, but no BDL); 2) control+DPIM; 3) BDL only; 4) BDL+DPIM. Each group consists of 6-8 mice. DPIM compound for treatment was supplied in the drinking water at three concentrations, 500 mg/l, 750 mg/l, 1 g/l, respectively. The drinking water containing DPIM was changed weekly. It was observed that on average each mouse (normal or operated) drank approximately 3-4 ml plain or DPIM-containing water every day. […] The compound treatment was started on the third day after animals recovered from the BDL procedure. After 4 weeks, livers were removed from mice for fixation 10% formalin, subsequently embedded in paraffin.
For consistency, paraffin-sections prepared from the left and median lobes were stained with Sirius-Red to visualize the collagen content. […]

For the molecule “1,3,5-tris(4-methyl-imidazolium)-linked cyclophane.3Br [TDBZIM]”, the “cell survival in 0.2% (v/v) DMSO” value in the data set on primary HSCs (26 h) is “survived”; in the data set with primary HSCs (over 93 h), “remained viable and proliferated to confluency”.
In the case of `CC(C)n1cc[n+](C(C)C)c1.F[B-](F)(F)F` [DPIM, 1,3-diisopropylimidazolium tetrafluoroborate], the liver weight in data set [1] (BDL 4 weeks + 750 mg/l (BDL alone 2.74±0.51 g)) turned out to be 1.97 ± 0.44 g; in data set [1] (BDL 4 weeks + 1 g/l (BDL alone 2.74±0.51 g)), 1.65 ± 0.20 g; in data set [1] (sham operated + DPIM for 4 weeks (sham 1.50±0.19 g)), 1.56 ± 0.08 g. The results for the “Sirius-Red positive areas (percentage of staining areas; BDL alone 8.69)” value in data set [1] (BDL 4 weeks + 750 mg/l in drinking water) and in data set [1] (BDL 4 weeks + 1 g/l in drinking water) were 4.33% and 3.42%, respectively. The “proliferative cells around the sinusoidal area (H&E staining)” value in data set [1] (BDL 4 weeks + 1 g/l) is listed as “reduced the number of proliferative cells”. Also, the “liver collagen 1a1 mRNA” value in data set [1] (BDL model) is listed as “reduced the collagen 1a1 mRNA”. Besides, the “liver fibrosis (Sirius Red collagen)” value in data set [1] (BDL model) is reported as “displayed its effect”. The “collagen build-up in sham mice” value in data set [1] (sham operated + 1 g/l for 4 weeks) is listed as “did not induce any significant build-up of collagen”.
Turning to `[Br-].c1ccc(Cn2cc[n+](Cc3ccccc3)c2)cc1` [DBZIM, 1,3-bisbenzylimidazolium bromide], the “liver fibrosis (Sirius Red collagen)” value in data set [1] (BDL model) is on record as “attenuated fibrosis”. Moreover, the figures for the “cell survival in 0.2% (v/v) DMSO” value with primary HSCs (26 h) and in the data set with primary HSCs (over 93 h) were “survived” and “most cells died”, respectively.
